Data from patent EP1834952A1, “Compound for promoting the growth of neural cells” (NatureWise Biotech & Medicals Corporation, priority 2006, dated 2007).

Experiments:
Assay type in all cases: cell-based, Wistar rat
[1] = tested on: neural stem cells; assay: Differentiation of NSCs from neurospheres, MAP-2 immunofluorescent staining (Examples 5 and 6)
Protocol: In the beginning of cultivating NSCs, either compound A or EGF was added into the growth media. The cells were cultivated for 3 days and the cells would aggregate to form neurospheres. One hundred µl of the cell suspension was aspirated and diluted to 1 ml. 250 µl of the supernatant which contained neurospheres was aspirated and placed on the cover slides coated with 30 µg/ml poly-D-lysine (Sigma). After all the cells had been attached onto the slides, the media was removed and replaced with the cultivating media containing compound A (FIG. 5A), EGF (FIG. 5C), or none of the growth factors (FIG. 5B, compound A in the beginning; FIG 5D, EGF in the beginning). The cells were cultivated for another 3 days at the same condition as described above so that the cells would differentiate into cortical neurons.
The cells were stained with a known immunofluorescent staining method. To stain the neurons, a neurological marker of MAP-2 (microtubule-associated protein 2) antibody was used as the primary antibody and a fluorescent material-labeled mouse immunoglobulin that identified primary antibody was used as the second antibody. After the primary antibody that had been bound onto the neurons was identified and bound by the secondary antibody, the neurons emit fluorescent light under the excitation of a specific light source.
The procedures were similar to Example 5. However, in the beginning of cultivating the neural stem cells, both compound D and EGF were added into the media. After all the cells had been attached onto the slides, the media were removed and replaced with the cultivating media containing compound D (FIG. 6B), EGF (FIG. 6C), none of the growth factors (FIG. 6D), or both compound D and EGF (FIG. 6A). The cells were cultivated for another 3 days and the cell morphology was observed thereafter by using immunofluorescent staining technique.

[2] = tested on: cortical neurons; assay: Neurite length of cortical neurons cultivated at low density, by microscope (Example 4); conditions: 38 cells/mm^2, 5 days; for growth of neurons and neurites under microscope: in the control all neural cells are dead
Protocol: (§1) Cells obtained from the suspension prepared in Example 1 were cultivated at a density of 38 cells/ mm^2 in 6-well plates coated with 30 µg/ml poly-D-lysine (Sigma) at 37°C, 5% CO2 and 95% relative humidity. The growth media contained compounds A, B, D, and G respectively and the growth media added with 5 µl of DMSO were used as control. The differentiated cells are categorically called cortical neurons.
The experiments were repeated three times. After cultivating for 5 days, the cells were observed under microscope and the length of the neurites was measured.

[3] = tested on: NSCs; assay: Continuous cultivation of NSCs for 30 days, morphology and later differentiation (Example 7)
Protocol: As in Example 1, the NSCs were cultivated continuously and the growth media were replaced every seven days. DMSO-added growth media were used as the negative control. After 30 days, 100 µl of the cell suspension was aspirated and diluted to 1 ml. 250 µl of the supernatant was aspirated and placed on the slides coated with 30 µg/ml poly-D-lysine (Sigma). The cell morphology was observed thereafter under a microscope.
Unlike the normal neural stem cells, the cells lose their propensity to aggregate and form spheres, and the cells become atrophic in the cultivating suspension. […] These cells were cultivated for another 3 days and the cells were stained with immunofluorescence the same as in Example 5.

[4] = tested on: cortical neurons; assay: Survival of cortical neurons, live cell count by MTT assay (Examples 2 and 3); conditions: 300 cells/mm^2; 5 days; versus DMSO control; FIG. 2
Protocol: as §1, with “cultivated” for “cultivated at a density of 38 cells/ mm^2”, “µg/ml of” for “µg/ml”, “(Sigma) at 300 cells/mm^2 and cultivated” for “(Sigma)”, “D, E, F, G,” for “D,”, “and H” for “and G”, “cells after cultivation were” for “cells are”
The experiments were repeated three times. After cultivating for 5 days, live cells were counted by a known cell-counting method (MTT assay) and the absorbance was read at 540 nm.
as §1, with “150 or 300 cells/mm^2” for “38 cells/ mm^2”, “A,” for “A, B,”
The experiments were repeated three times. After cultivating for 5 days, the live cells were counted by a known cell-counting method (MTT assay) and the absorbance was read at 540 nm.

Structure (SMILES) | differentiation of NSCs (MAP-2 staining) ([1]; supplemented in the beginning (3 days) and thereafter at seeding on slides (another 3 days), FIG. 5A/5C) | differentiation of NSCs (MAP-2 staining) ([1]; supplemented in the beginning only, none thereafter, FIG. 5B/5D) | length of neurites, L1 ([2]; 2.5 µM) | length of neurites, L2 ([2]; 2.5 µM) | neurites extending out of each soma ([2]; 2.5 µM) | growth of neurons and neurites under microscope ([2]; 2.5 µM) | cell morphology of NSCs after 30 days ([3]; media replaced every seven days, almost no surviving cells in DMSO control, FIG. 7B) | differentiation of 30-day neurospheres (immunofluorescence) ([3]; then another 3 days on slides, FIG. 7C) | absorbance at 540 nm (live cells, MTT assay) [4] | length of neurites, L1 ([2]; 5 µM) | neurites extending out of each soma ([2]; 5 µM) | growth of neurons and neurites under microscope ([2]; 5 µM) | differentiation of NSCs (MAP-2 staining) ([1]; both compound D and EGF in the beginning, compound D thereafter, FIG. 6B) | length of neurites, L2 ([2]; 5 µM)
C/C(=C\Cc1c([C@@H]2CC(=O)c3c(O)cc(O)cc3O2)ccc(O)c1O)CCCC(C)(C)O [compound A] | the cells will differentiate into neurons | the cells will differentiate into neurons | 236 µm | 161 µm | at least 3 | continuous growth of the neurons and the extension of the neurites can be observed | can maintain the characteristics of forming spherical clusters | differentiating normally into neurons with the continuous outgrowth of neurites | best results |  |  |  |  | 
C/C(=C\Cc1cc([C@@H]2CC(=O)c3c(O)cc(O)cc3O2)cc(O)c1O)CCCC(C)(C)O [compound B] |  |  |  |  |  |  |  |  |  | 235 µm | at least 3 | continuous growth of the neurons and the extension of the neurites can be observed |  | 
CC(C)=CCC/C(C)=C/Cc1c([C@@H]2CC(=O)c3c(O)cc(O)cc3O2)ccc(O)c1O [compound D] |  |  |  |  |  |  |  |  | best results | 211 µm | at least 3 | continuous growth of the neurons and the extension of the neurites can be observed | the cells will differentiate into neurons | 
CC(C)=CCC/C(C)=C/Cc1c(O)cc2c(c1O)C(=O)C[C@@H](c1ccc(O)c(O)c1CC=C(C)C)O2 [compound G] |  |  |  |  |  |  |  |  | best results | 316 µm | at least 3 | continuous growth of the neurons and the extension of the neurites can be observed |  | 216 µm
